The term Kd denotes the constant that tells how readily two partners part at equilibrium.

The text below walks through data of US6814967B2, “Antibodies to cortistatin: neuropeptides, compositions and methods” (The Scripps Research Institute, priority 1996, dated 2004).

In one assay the test system is SSTR 2-5. Put plainly: Binding studies to cloned somatostatin receptors. The following applies: relative to somatostatin.
Assay [1] addresses somatostatin receptor 1 (SSTR1) (Homo sapiens, UniProt P30872). Put plainly: Binding studies to cloned somatostatin receptors.
In assay [2] the test system is hippocampal CA1 pyramidal cells. Briefly: Current-clamp intracellular recording in hippocampal slices. The assay is classed as cell-based, rat. Particulars: for time to maximum steady effect (time-to-peak) after onset of the response: hippocampal slice CA1 neurons, superfusion. The procedure: Somatostatin is known to hyperpolarize central neurons by increasing potassium conductances as described by Inoue et al., J. Physiol., 407:177-198 (1988), including the voltage-dependent potassium M current (see Moore et al., Science, 239:278-280 (1988) and Jacquin et al., Proc. Natl. Acad. Sci., USA, 85:948-952 (1988)). To complete the characterization of the physiological role of cortistatin, assays were performed to determine whether cortistatin had somatostatin-like effects on hippocampal neurons by means of current- and voltage-clamp recordings in the hippocampal slice preparation.
Intracellular recordings were obtained in rat hippocampal slices using sharp glass micropipettes as previously described by Schweitzer et al., J. Neurosci., 13:2033-2049 (1993). Recordings were made from 11 hippocampal CA1 pyramidal cells with an average resting membrane potential of −70 Å 1 mV (mean Å s.e.m.) and action potential of 103 Å 2 mV. Current-clamp recording of a CA1 neuron manually depolarized to −65 mV (resting membrane potential was −70 mV) to elicit action potential firing (upward deflections, truncated) is shown in FIG. 6A.
Superfusion of […] cortistatin-14 peptide (bar above record), prepared as described in Example 3, like somatostatin-14, hyperpolarized these neurons (10 of 11 cells), in association with inhibition of action potential firing, followed by recovery to control levels upon washout of the peptide. Unlike somatostatin, the cortistatin-14-mediated effect developed slowly, reaching a maximum steady effect six to eight minutes after the onset of the response. This contrasted with the time-to-peak of somatostatin′s effect on these neurons under the same experimental conditions that was much shorter (2-3 minutes).

The subject of assay [3] is cerebral cortex (visual cortex) local EEG. Briefly: Local EEG activity in visual cortex of anesthetized rats, microiontophoretic application. The assay is classed as in vivo, rat. How it is done: To investigate further whether cortistatin also interacts with cholinergic systems that regulate cortical function, the effects of cortistatin on ACh-induced desynchronization of EEG in the cerebral cortex of anesthetized rats was determined. Thus, ACh and cortistatin was microiontophoretically (100-250 nA) applied on local EEG activity recorded in the visual cortex. For the data shown in FIG. 7G, the results from the experimental groups were derived from averaged EEG spectral activity determinations and expressed as means Å s.e.m. (Asterisk represents significance levels P<0.05 from baseline; two asterisks represent significance levels P<0.05 from ACh; ANOVA).

In assay [4] the test system is somatostatin receptors on GH4 pituitary cells. Briefly: Displacement of 125I-somatostatin-14 bound to GH4 pituitary cells. The assay is classed as binding. Particulars: for Kd: GH4 pituitary cells, four independent experiments, read-out: estimated Kd, displacement of 125I-somatostatin-14 binding; for displacement of 125I-somatostatin: GH4 cells, control peptides. The procedure:
To determine the binding specificity of cortistatin and in view of its similarity to somatostatin, assays to assess the binding of chemically synthesized, linear cortistatin-14 peptide prepared in Example 2 to somatostatin receptors on GH4 pituitary cells were performed.
GH4 cells, obtained from Dr. Kaare M. Gautvik (University of Oslo) or ATCC, were grown in MEM medium with 12% fetal calf serum in 6-well plates at 10^6 cells/ml. Each well then received 10^6 cpm/ml of ^125I somatostatin-14 (NEN, DuPont, Wilmington, Del.) alone or with increasing concentrations of somatostatin-14 peptide (Sigma) or cortistatin-14 peptide (95%, purified by reverse phase HPLC ranging from 10^−10 M to 10^−6 M. Aprotinin and leupeptin (Sigma; […]) was included as it reduced non-specific binding to 20% of total bound radioactivity. The binding of ^125I somatostatin in the presence of 10^−7 M somatostatin was considered as unspecific binding as described by Schonbrunn et al., J. Biol. Chem., 235:6473-6483 (1978).

The test system of assay [5] is endogenous somatostatin receptors expressed by GH4 cells. Briefly: cAMP assay in GH4 cells stimulated with VIP or TRH. The format is cell-based. How it is done: To investigate whether cortistatin modulates somatostatin receptor activation, the concentration of cyclic AMP (cAMP) was determined following stimulation of GH4 cells with VIP or TRH in the presence or absence of either cortistatin or somatostatin.
For the cAMP assays, GH4 cells were grown under the same conditions as for the binding assays. The cells were washed with MEM without serum, but containing leupeptin, aprotinin and 1 mM 3-isobutyl-methyl-xantine (IBMX). The cells were pretreated with somatostatin-14 and cortistatin-14 for 15 minutes before VIP at 10^−6 M was added or TRH at 10^−7 M. To each well, ^3H cyclic AMP was added before the content was removed, to calculate recovery. For cAMP measurements, a RIA kit (Amersham, Arlington Heights, Ill.) was used according to the instructions of the manufacturer. Each time point represents 2-4 replicates and the experiments were carried out twice.
(In general: Cyclic AMP is a second messenger, typically raised through Gs and lowered through Gi signalling.)

The subject of assay [6] is sleep-wake cycle of the rat. Put plainly: Intracerebroventricular administration, EEG and sleep-wake cycle of the rat. The assay is classed as in vivo. An excerpt:
As cortistatin is expressed in interneurons located in the cerebral cortex and hippocampus, its effects on cortical measures of neuronal excitability was next determined in vivo. Up to 6 nmoles of HPLC-purified synthetic cortistatin-14 peptide prepared in Example 3 were infused into the brain ventricles of rats (n=5) and recorded the electroencephalogram (EEG) for four hours after peptide injection. […] Standard methodologies for chronic electrophysiological preparation and data acquisition were used. Procedures for EEG recordings and PP studies are as described by Prospero-Garcia et al., Pharmacol. Biochem. Behav., 49:413 (1994) and Steffensen et al., Brain Res., 652:149 (1994).
FIGS. 7A-1, 7A-2, 7A-3 and 7A-4 show the effects of the intracerebroventricular administration of cortistatin on the sleep-wake cycle of the rat. FIGS. 7A-1, 7A-2, 7A-3 and 7A-4 respectively illustrate wakefulness, slow-wave sleep 1, slow-wave sleep 2 and REM sleep. The effects of the sleep cycle were assessed with cortistatin-14 dosages at 100 ng, 500 ng, […] as plotted from left to right in the bar graphs as shown against saline control. Asterisks represent significance levels of P<0.05; ANOVA.

The subject of the next assay is CA1 pyramidal neurons. Put plainly: Population spike amplitudes in CA1 in vivo, iontophoretic application, anesthetized rats. Also noted: species or system rat. Particulars: microiontophoretic application, 1 mg/ml in saline; half-maximal and maximal stimulation; P<0.05. How it is done:
The inhibitory effects of cortistatin on the excitability of CA1 pyramidal neurons as viewed by population spike (PS) amplitudes was paralleled in vivo in the anesthetized preparation. For the in vivo studies, male Sprague-Dawley rats were anesthetized with halothane (0.9-1.1%). The commisural pathway was stimulated and elicited field potentials in the CA1 region essentially as described by Steffensen et al., Brain Res., 538:46-53 (1991). Cortistatin (1 mg/ml) was dissolved in saline and administered iontophoretically through one barrel of a multibarreled micropipette. […] Asterisks represent significance levels at P<0.05. The data was compiled with software (LabView Instruments, National Instruments, Austin, Tex.) as described by Steffensen et al., Brain Res., 538:46-53 (1991).
Stimulation of the monosynaptic afferent input to the CA1 region evoked a characteristic population spike (PS) that represents the synchronous firing of pyramidal cells, superimposed on a field synaptic potential waveform as described by Anderson et al., Exp. Brain Res., 13:208-221 (1971).

For assay [7], the system named is voltage-dependent potassium M current (IM). Put plainly: Voltage-clamp recording of M current (IM) relaxation in CA1 neurons. The following applies: 7 minutes superfusion; CA1 neuron held at −43 mV. Also noted: dose or concentration left out as unconfirmed. The format is cell-based, rat. An excerpt:
To determine the mechanism of the cortistatin-induced inhibition, we assessed the effect of cortistatin on the M current (IM), a non-inactivating voltage-dependent potassium current seen in hippocampal neurons as described by Halliwell et al., Brain Res., 250:71-92 (1982).
In voltage clamp assays, the IM relaxation was observed by applying hyperpolarizing steps (5 to 25 mV) from a holding potential of −43 to −48 mV.

The test system of another assay is hippocampal CA1 neurons. Briefly: Paired-pulse (PP) responses in CA1 neurons in vivo, iontophoretic application. More on the design: species or system rat. The following applies: for effect on PP responses (PP inhibition) in CA1: applied alone iontophoretically, ACh 0.9 M, somatostatin 1.5 mM, 80 ms interstimulus interval.
The mark [8] stands for this setting: peptide alone at 10^−6 M, compared to control.

Sequence of somatostatin receptor 1 (SSTR1) (P30872 whole entry, species assumed, the tested form may be a part): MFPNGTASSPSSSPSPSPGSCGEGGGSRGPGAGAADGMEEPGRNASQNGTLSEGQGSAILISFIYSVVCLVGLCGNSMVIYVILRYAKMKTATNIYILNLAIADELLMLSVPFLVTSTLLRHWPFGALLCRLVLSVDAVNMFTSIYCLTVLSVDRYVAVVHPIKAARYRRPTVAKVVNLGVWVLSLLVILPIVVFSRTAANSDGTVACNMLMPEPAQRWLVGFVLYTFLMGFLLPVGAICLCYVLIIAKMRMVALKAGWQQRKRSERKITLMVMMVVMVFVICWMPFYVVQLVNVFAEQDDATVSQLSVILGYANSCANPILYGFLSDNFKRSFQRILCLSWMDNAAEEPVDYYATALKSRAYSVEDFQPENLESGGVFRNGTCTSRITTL
Text for hippocampal CA1 neurons: Stimulation intensity was adjusted after drug treatment to achieve control PS amplitudes before performing PP studies.

As for “14-residue peptide of SEQ ID NO 8 (PCKNFFWKTFSSCK), same sequence for rat and mouse, chemically synthesized [cortistatin-14]”, in the assay on SSTR 2-5, the “affinity for SSTR 2-5” value was “far lesser affinity”. Moreover, in assay [1], the “affinity for somatostatin receptor 1 (SSTR1)” value was “comparable to somatostatin”. Also, the “time to maximum steady effect (time-to-peak) after onset of the response” value in assay [2] is on record as “six to eight”. Further, the “effect on membrane potential of CA1 neurons” value in [2] (superfusion of 1 M, 10 of 11 cells, inhibition of action potential firing, recovery on washout) is listed as “hyperpolarized”. In assay [3] (applied alone, 100-250 nA, visual cortex, anesthetized rats), the “local EEG (averaged EEG power spectra)” value is on record as “not different from baseline”. Also, the “effect of ACh on local EEG (increase in fast frequency activity)” value in [3] (simultaneous electrophoretic application with ACh) is recorded as “effectively prevented”. In assay [4], the Kd is 5 nM. Moreover, the “intracellular concentration of cAMP” value in assay [5] (setting [8]) was “no effect”. Further, the “EEG cortical slow waves (1-4 Hz)” value in assay [6] (infused into brain ventricles of rats) is “dramatic increase”. Moreover, the spontaneous behavior entry in assay [6] (infused into brain ventricles of rats, compared to saline-injected rats) is “clear hypoactive behavior”. For the same compound, in assay [6] (intracerebroventricular, 40% in saline-treated control animals), the “share of the four hour recording time in slow-wave sleep” value is on record as “up to 75%”. Also, the “paradoxical (REM) sleep” value in assay [6] (intracerebroventricular, highest dose) is given as “significant reduction”. In the assay with CA1 pyramidal neurons, the “population spike (PS) amplitudes” value is listed as “significantly decreased”. The “increase of the amplitude of the IM relaxation” value in assay [7] is 60%. Moreover, the “effect on PP responses (PP inhibition) in CA1” value in the assay with hippocampal CA1 neurons is “no significant effects”. The “effect on the ACh-induced reduction of PP inhibition” value in the assay on hippocampal CA1 neurons (simultaneous iontophoretic application with ACh, P<0.05) is recorded as “completely antagonized”.
Turning to `C[C@H](N)C(=O)NCC(=O)N[C@H]1CSSC[C@@H](C(=O)O)NC(=O)[C@H](CO)NC(=O)[C@H]([C@@H](C)O)NC(=O)[C@H](Cc2ccccc2)NC(=O)[C@H]([C@@H](C)O)NC(=O)[C@H](CCCCN)NC(=O)[C@H](Cc2c[nH]c3ccccc23)NC(=O)[C@H](Cc2ccccc2)NC(=O)[C@H](Cc2ccccc2)NC(=O)[C@H](CC(N)=O)NC(=O)[C@H](CCCCN)NC1=O` [somatostatin-14, reference compound], the “time to maximum steady effect (time-to-peak) after onset of the response” value in assay [2] was 2 to 3 min. The dissociation constant (Kd) in [4] was 5 nM. Also, the “intracellular concentration of cAMP” value in assay [5] (setting [8]) is “no effect”. In addition, the “effect on PP responses (PP inhibition) in CA1” value in the assay on hippocampal CA1 neurons is “markedly decreased PP inhibition”.
Consider “thryoid releasing hormone (QHP) [TRH, control peptide and cAMP stimulator (Calbiochem)]”, for which the “displacement of 125I-somatostatin” value in assay [4] is recorded as “did not show any displacement”. For the same compound, the “intracellular concentration of cAMP” value in assay [5] (peptide alone at 10^−7 M) is listed as “increased”.
Regarding “vasoactive intestinal peptide (HSDAVFTDNYTRLRKQMAVKKYLNSILN) [VIP, control peptide and cAMP stimulator (Bachem)]”, the “displacement of 125I-somatostatin” value in assay [4] is on record as “did not show any displacement”. In addition, the “intracellular concentration of cAMP” value in assay [5] (setting [8]) is recorded as “increased”.
